# Laboratory results: ChEMBL document CHEMBL1127641, “Applications of combinatorial technologies to drug discovery. 1. Background and peptide combinatorial libraries” (J Med Chem, 1994)
# Molecular target: Beta-secretase (BACE) (Homo sapiens, UniProt Q9Y5Z0+P56817)
# Assay: Inhibitory activity against aspartyl protease
# Assay type: protein assay
compound,measurement,value
CC[C@H](C)[C@H](NC(=O)[C@H](Cc1ccccc1)NC(C)=O)C(=O)NC(CC(C)C)C(O)CC(=O)NC(CC(C)C)C(N)=O (stereo in doubt),IC50,1400 nM
